Data reported in ChEMBL document CHEMBL4665709, “Rational Avoidance of Protease Cleavage Sites and Symmetrical End-Tagging Significantly Enhances the Stability and Therapeutic Potential of Antimicrobial Peptides” (J Med Chem, 2020).
Values after ≈ are worked out from the molar mass of the structure shown. Where a SMILES comes first, the peptide text is derived from it.

Experiments:
Type in all cases: functional
Details in all cases: time hrs 18-24
[1] = system: Staphylococcus epidermidis; assay: Antibacterial activity against Staphylococcus epidermidis ATCC 12228 after 18 to 24 hrs by CLSI-based broth microdilution method
Staphylococcus aureus = assay: Antibacterial activity against Staphylococcus aureus ATCC 29213 after 18 to 24 hrs in presence of 8 uM Zn2+ by CLSI-based broth microdilution method
Escherichia coli [2] = assay: Antibacterial activity against Escherichia coli ATCC 25922 after 18 to 24 hrs in presence of 6 uM NH4+ by CLSI-based broth microdilution method
Escherichia coli [3] = assay: Antibacterial activity against Escherichia coli ATCC 25922 after 18 to 24 hrs in presence of 150 mM Na+ by CLSI-based broth microdilution method

Structure (SMILES): CC[C@H](C)[C@H](N)C(=O)N[C@H](C(=O)N[C@H](C(=O)N[C@@H](CS)C(=O)N[C@@H](CCCNC(=N)N)C(=O)N[C@@H](CCCCN)C(=O)N1CCC[C@H]1C(=O)N[C@H](C(=O)N[C@H](C(=O)N[C@@H](CS)C(=O)N[C@@H](CCCNC(=N)N)C(=O)N[C@@H](CCCCN)C(=O)N1CCC[C@H]1C(=O)N[C@H](C(=O)N[C@H](C(=O)N[C@@H](CS)C(=O)N[C@@H](CCCNC(=N)N)C(=O)N[C@@H](CCCCN)C(=O)N1CCC[C@H]1C(=O)N[C@H](C(=O)N[C@H](C(=O)N[C@@H](CS)C(=O)N[C@@H](CCCNC(=N)N)C(=O)N[C@@H](CCCCN)C(=O)N1CCC[C@H]1C(=O)N[C@H](C(=O)N[C@H](C(=O)N[C@H](C(N)=O)[C@@H](C)CC)[C@@H](C)CC)[C@@H](C)CC)[C@@H](C)CC)[C@@H](C)CC)[C@@H](C)CC)[C@@H](C)CC)[C@@H](C)CC)[C@@H](C)CC)[C@@H](C)CC)[C@@H](C)CC (H-IIICRKPIICRKPIICRKPIICRKPIII-NH2)
- MIC [1]: 4 µM (≈ 13.3 µg/mL)
- MIC (Staphylococcus aureus): 8 µM
- MIC (Escherichia coli [2]): 2 µM
- MIC (Escherichia coli [3]): 4 µM
